A short description of series [1]: (§1) Toxicity against Artemia salina after 24 hrs. Conditions: in vivo. Format: organism-based.
The test system of series [2] is Artemia salina. Described as §1. As to conditions: in vivo, 24 h. The class given is organism-based.

The text below walks through data of ChEMBL document CHEMBL1149743, “Linear diterpenes from the Caribbean sponge Myrmekioderma styx” (J Nat Prod, 1992).

≈ marks a conversion by molar mass, not a printed value.

`C=CC(C)(O)/C=C/C=C(\C)CC/C=C(\C)CC(=O)CC(C)C` (centres undefined): the LC50 (as a rule, the concentration lethal to half of the exposed cells or organisms) at 24 h in series [1] came to 3 µg/mL (≈ 9.85 µM).
Turning to `C=CC(C)(O)/C=C/C=C(\C)CC/C=C(\C)CCC=C(C)C` (centres undefined), the Activity entry in series [2] is listed as “Toxic”.
On to `C=CC(C)(O)/C=C/C=C(\C)CCC/C(C)=C\C(=O)C=C(C)C` (centres undefined), for which the LC50 at 24 h in series [1] is 163 µg/mL (≈ 539 µM).
`C=CC(C)(O)/C=C/C=C(\C)CC/C=C(\C)CC(=O)C=C(C)C` (centres undefined) [STYXENOL A]: the 50% lethal concentration (LC50) at 24 h in series [1] came to 154 µg/mL (≈ 509 µM).
